Where two headings read alike, the source gives them in different places.
Experiments:
[1] = test system: Plasmodium yoelii nigeriensis (strain PR); experiment: Antimalarial activity in mice, pyrimethamine-resistant Plasmodium yoelii nigeriensis strain PR, oral daily for 4 days; assay type: in vivo; conditions: for Number of mice cured: PR; for ED50: Plasmodium yoelii, 504 h, strain PR, oral daily for 4 days from day of infection, 21 days observation, read-out: CD50 (dose required to cure 50% of mice tested)
Description: (§1) (a) The test compounds were tested in mice, against Plasmodium yoelii nigeriensis (strain N67), which is sensitive to pyrimethamine, and against a strain of Plasmodium yoelii nigeriensis [strain PR (derived from strain N67)] which is resistant to pyrimethamine, and also against pyrimethamine sensitive Plasmodium berghei (strain N30).
(§2) In the experiments, the mice were each infected intraperitoneally with about 10^6 trophozoites. The test compound was administered orally daily for 4 days, beginning on the day of infection, and peripheral blood smears of the mice were observed 2 or 3 times per week for a total of 21 days. The numbers of mice cured were counted and the dose required to cure 50% of mice tested (CD50) was calculated.

[2] = test system: Plasmodium yoelii nigeriensis (strain N67); experiment: Single oral dose antimalarial test in mice infected with strain N67; assay type: in vivo, Plasmodium yoelii nigeriensis; mice; conditions: for ED50: Plasmodium yoelii
Description: (b) Mice were each infected intraperitoneally with about 10^6 trophozoites of strain N67 of Plasmodium yoelii nigeriensis. […] The numbers of mice cured were counted and the dose required to cure 50% of mice tested (CD50) was calculated.
The results obtained are shown below in Table II, in comparison with a test using pyrimethamine against the same organism.

[3] = test system: malaria; experiment: Comparative activity against malaria (general statement); assay type: in vivo
From the text: The properties of the compound of formula III are illustrated by the following laboratory tests.

[4] = test system: Plasmodium berghei (strain N30); experiment: Antimalarial activity in mice, Plasmodium berghei strain N30, oral daily for 4 days; assay type: in vivo; conditions: for Number of mice cured: 24 mice tested; for ED50: Plasmodium berghei, 504 h, read-out: CD50 (dose required to cure 50% of mice tested)
Description: as §1, §2

[5] = test system: Plasmodium yoelii nigeriensis (strain N67); experiment: Antimalarial activity in mice, Plasmodium yoelii nigeriensis strain N67, oral daily for 4 days; assay type: in vivo; conditions: for ED50: Plasmodium yoelii, 504 h, read-out: CD50 (dose required to cure 50% of mice tested)
Description: as §1, §2

[6] = Acute oral toxicity in mice; assay type: in vivo; conditions: mouse, in vivo; single oral dose, mice; read-out: LD50 (dose required to kill 50% of the mice tested)
Description: (§3) Mice were treated with a single dose of the compound of formula III by the oral route, and were observed until all survivors had appeared to be healthy for 3 consecutive days. The LD50 dose (dose required to kill 50% of the mice tested) was then calculated.
(§4) In a similar test on reference compound RCA an oral dose of 1000 mg/kg killed 2 out of 5 mice, giving an LD50 figure of […].

[7] = test system: mice; experiment: Acute oral toxicity in mice; assay type: in vivo; conditions: 5 mice tested
Description: as §3, §4

[8] = test system: dogs; experiment: Toxicity in dogs, oral; assay type: in vivo
[9] = 504 h, one single oral dose 48 hours after infection, strain N67, read-out: CD50 (dose required to cure 50% of mice tested)

## Cc1nc(N)nc(N)c1OCCCOc1ccc(-c2ccc(Cl)cc2)cc1 [compound of formula III, 2,4-diamino-5-[3-{4-(4-chlorophenyl)phenoxy}propoxy]-6-methylpyrimidine]
[1]; daily dose 0.2 mg/kg, 16 mice tested
  Number of mice cured: 0 mice
[1]; daily dose 2.0 mg/kg, 16 mice tested
  Number of mice cured: 3 mice
[1]; daily dose 20.0 mg/kg, 15 mice tested
  Number of mice cured: 15 mice
[1]
  ED50: 3 mg/kg
[2]; [9]
  ED50: 3.5 mg/kg
[2]; single dose 0.2 mg/kg, 48 hours after infection, 8 mice tested
  Number of mice cured: 0 mice
[2]; single dose 2.0 mg/kg, 48 hours after infection, 8 mice tested
  Number of mice cured: 1 mice
[2]; single dose 20.0 mg/kg, 48 hours after infection, 8 mice tested
  Number of mice cured: 8 mice
[3]; sensitive and resistant strains of malaria, versus reference compound RCA
  Antimalarial activity in comparison: very much more active than reference compound RCA
[4]; N30, daily dose 0.125 mg/kg
  Number of mice cured: 0 mice
[4]; N30, daily dose 0.5 mg/kg
  Number of mice cured: 14 mice
[4]; N30, daily dose 2.0 mg/kg
  Number of mice cured: 24 mice
[4]; strain N30, oral daily for 4 days from day of infection, 21 days observation
  ED50: 0.45 mg/kg
[5]; N67, daily dose 0.125 mg/kg, 32 mice tested
  Number of mice cured: 2 mice
[5]; N67, daily dose 0.5 mg/kg, 32 mice tested
  Number of mice cured: 28 mice
[5]; N67, daily dose 2.0 mg/kg, 31 mice tested
  Number of mice cured: 31 mice
[5]; strain N67, oral daily for 4 days from day of infection, 21 days observation
  ED50: 0.3 mg/kg
[6]
  LD50: ~1000 mg/kg
[7]; 500 mg/kg oral
  Number of mice killed: 0 mice
[7]; 1000 mg/kg oral
  Number of mice killed: 3 mice
[8]; 15 mg/kg/day (highest dosage), 6 dogs
  Number of dogs in which clinically well-tolerated: 5 dogs
[8]; oral gelatin capsules, one month, 1, 3 and 9 mg/kg/day
  Clinical tolerance in dogs: clinically well-tolerated
[8]; versus reference compound RCA
  Toxicity in dogs in comparison: much less toxic in dogs than reference compound RCA

## CCc1nc(N)nc(N)c1-c1ccc(Cl)cc1 [pyrimethamine, 2,4-diamino-5-(4-chlorophenyl)-6-ethylpyrimidine]
[2]; [9]
  ED50: > 50 mg/kg
[2]; dose 5.0 mg/kg, 8 mice tested
  Number of mice cured: 0 mice
[2]; dose 50.0 mg/kg (maximum tolerated dose), 8 mice tested
  Number of mice cured: 0 mice

## Cc1nc(N)nc(N)c1OCCCOc1ccc(Cl)cc1C1CCCCC1 [reference compound RCA, 2,4-diamino-6-methyl-5-[3-(4-chloro-2-cyclohexylphenoxy)propoxy]pyrimidine, reference compound]
[1]; daily dose 10 mg/kg, 32 mice tested
  Number of mice cured: 0 mice
[1]; daily dose 100 mg/kg, 32 mice tested
  Number of mice cured: 32 mice
[1]
  ED50: 30 mg/kg
[2]; po, 24 h, read-out: CD50
  ED50: > 200 mg/kg
[2]; oral dose 200 mg/kg, 24 hours after infection, 8 mice
  Number of mice cured: 2 mice
[3]; fold as active
  Activity against malaria relative to any of the other 34 compounds of B.P. 1546937 tested: at least 4 times
[4]; N30, daily dose 1 mg/kg
  Number of mice cured: 0 mice
[4]; N30, daily dose 10 mg/kg
  Number of mice cured: 5 mice
[4]; N30, daily dose 100 mg/kg
  Number of mice cured: 24 mice
[4]; po
  ED50: 15 mg/kg
[5]; N67, daily dose 1 mg/kg, 32 mice tested
  Number of mice cured: 2 mice
[5]; N67, daily dose 5 mg/kg, 32 mice tested
  Number of mice cured: 17 mice
[5]; N67, daily dose 25 mg/kg, 31 mice tested
  Number of mice cured: 31 mice
[5]; po
  ED50: 5 mg/kg
[6]
  LD50: ~1000 mg/kg
[7]; 1000 mg/kg oral
  Number of mice killed: 2 mice
[8]; doses higher than 3 mg/kg/day
  Deaths in dogs: deaths occurring at higher doses
[8]; even at doses of 3 mg/kg/day
  Clinical tolerance in dogs: clinically badly tolerated

From patent US4374136A, “Pyrimidine derivatives” (May & Baker Limited, priority 1980, dated 1983)
